According to ChEMBL document CHEMBL1201862, “PubChem BioAssay data set” (2004):
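Exposure lasted 48 hours, with cells grown in 96-well plates and compounds tested at five concentrations. GI50: concentration for 50% inhibition of growth.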 Calls of active or inactive are those of the source. No stated cut-off is given here; in the data, active = GI50 up to about 1.1 µM and inactive = higher.

Legend:
Experiment in all cases: growth of human tumour cells (NCI), 48 h
A498 = system: A498
COLO 205 = system: COLO 205
HCC 2998 = system: HCC 2998
HOP-92 = system: HOP-92
IGROV-1 = system: IGROV-1
K562 = system: K562
KM12 = system: KM12
M14 = system: M14
MCF7 = system: MCF7
NCI-H226 = system: NCI-H226
NCI-H522 = system: NCI-H522
NCI/ADR-RES = system: NCI/ADR-RES
OVCAR-4 = system: OVCAR-4
OVCAR-5 = system: OVCAR-5
SF-268 = system: SF-268
SF-539 = system: SF-539
SK-MEL-28 = system: SK-MEL-28
SK-MEL-5 = system: SK-MEL-5
SK-OV-3 = system: SK-OV-3
UACC-257 = system: UACC-257

Measured: GI50

COCCOCc1nc(C#N)c(N)o1
inactive: A498 > 100 µM | COLO 205 > 100 µM | HCC 2998 > 100 µM | HOP-92 > 100 µM | IGROV-1 > 100 µM | K562 > 100 µM | KM12 > 100 µM | M14 > 100 µM | MCF7 > 100 µM | NCI-H226 > 100 µM | NCI-H522 > 10 µM | NCI/ADR-RES > 100 µM | OVCAR-4 > 100 µM | OVCAR-5 > 100 µM | SF-268 > 100 µM | SF-539 > 100 µM | SK-MEL-28 > 100 µM | SK-MEL-5 > 100 µM | SK-OV-3 > 100 µM | UACC-257 > 100 µM

CS(=O)(=O)N1CC(CCl)c2ccc(NO)cc21 (stereo not given)
inactive: A498 15.2 µM | COLO 205 18 µM | HCC 2998 14.4 µM | HOP-92 14.4 µM | IGROV-1 13.6 µM | K562 2.88 µM | KM12 14.6 µM | M14 16.2 µM | MCF7 8.3 µM | NCI-H226 30 µM | NCI-H522 4.17 µM | NCI/ADR-RES 4.66 µM | OVCAR-4 17.5 µM | OVCAR-5 15.1 µM | SF-268 5.22 µM | SF-539 10.2 µM | SK-MEL-28 19.1 µM | SK-MEL-5 12.3 µM | SK-OV-3 18.7 µM | UACC-257 19.5 µM

Fc1ccccc1-c1cc(S)c2cc3c(cc2n1)OCO3
inactive: A498 10.4 µM | COLO 205 28.6 µM | HCC 2998 5.53 µM | HOP-92 > 45.7 µM | IGROV-1 7.93 µM | K562 13.1 µM | KM12 4.91 µM | M14 6.61 µM | MCF7 4.88 µM | NCI-H226 19.2 µM | NCI-H522 13.8 µM | NCI/ADR-RES 4.26 µM | OVCAR-4 > 100 µM | OVCAR-5 > 51.3 µM | SF-268 > 44.8 µM | SF-539 7.18 µM | SK-MEL-28 27.9 µM | SK-MEL-5 3.63 µM | SK-OV-3 16.1 µM | UACC-257 8.47 µM

Cn1c(=O)c2c(nc3n(CC(O)CCl)c(=O)ccn23)n(C)c1=O (stereo not given)
inactive: A498 54.5 µM | COLO 205 36.8 µM | HCC 2998 58.7 µM | HOP-92 45.9 µM | IGROV-1 20.8 µM | K562 39.2 µM | KM12 19.9 µM | M14 52.7 µM | MCF7 40.4 µM | NCI-H226 22.6 µM | NCI-H522 16.6 µM | NCI/ADR-RES 19.3 µM | OVCAR-4 61.8 µM | OVCAR-5 > 100 µM | SF-268 20.5 µM | SF-539 46.7 µM | SK-MEL-28 66.7 µM | SK-MEL-5 62.5 µM | SK-OV-3 45.1 µM | UACC-257 76.6 µM
